One may read the pIC50 as the negative decadic logarithm of the IC50, by convention in mol/L.

Assay [1] has as its system isolated guinea-pig papillary muscle. The assay can be described thus: Effective refractory period (ERP) prolonging effect in isolated guinea-pig right ventricular papillary muscle, in vitro. Further details: species or system guinea-pig (male). The following applies: for ERP change at 10^-4 M / ERP change at 10^-5 M: 30 minutes incubation, mean of at least four preparations. The source says: 2. Measurement of Effective Refracter Period in Guinea-pig Right Ventricular Papillary Muscle, in Vitro.
Effective refracter period (ERP) is regarded to be the shortest time interval between two identical electrical stimuli when both can evoke a twitch in the papillary muscle. A second stimulus applied earlier than the ERP is not effective. Compounds prolonging ERP can have antiarrhythmic effect. This method is useful primarily for testing antiarrhythmic agents belonging to class III according to the Vaughan Williams classification /Bexton, R. S. and Camm. A., J. Pharmacol. Ther., 17, 315 (1982)/.
Experiments were performed in a Schuler-type organ bath system having 4 channels. Male guinea-pigs weighing 450 to 750 g were killed by a blow on the head and ensanguinated. The heart was rapidly excised and papillary muscles of appropriate size (lower than 1 mm in diameter) were dissected from the right ventricle. The preparations were vertically mounted in 20 ml organ chambers containing Krebs solution bubbled with carbogen (consisting of 95% of O2 and 5% of CO2) and maintained at 35° C. The upper end of the muscles was connected with cotton threads to force-displacement transducers coupled to a recorder for measuring isometric tension via DC-bridge amplifiers. The lower end of the papillary muscles was pinned to the organ chamber with a silver hook that was also used as a stimulating electrode. The other electrode was immersed into the organ bath and had no direct contact with the preparation. The composition of the Krebs solution was the following (in mm): NaCl 118, KCl 4.8, NaHCO3 27.2, glucose 11.1, MgSO4 1.2, KH2 PO4 1, CaCl2 2.6, pH=7.4.
The preparations were equilibrated for 120 minutes under a resting tension of 1 g. During equilibration they were electrically stimulated at a rate of 2 Hz with 1 msec rectangular pulses that were above the diastolic threshold voltage by 10%. ERP was determined using a standard extrastimulus technique. Extrastimuli (S2) were interjected between the normal stimuli (S1) in such a way that the S1 -S2 interval was initially below the refracter period of the tissue. The S1 -S2 interval was then widened by increments of 1 msec until the extrastimulus (S2) evoked twitch of the papillary muscle. The force of the twitch caused by S2 is larger than those caused by normal (S1) stimuli (postextrasystolic potentiation). The equipment measured the shortest S1 -S2 interval at which the extrastimulus evoked a twitch that was larger than the force of control twitches by 25%. This interval is equivalent with the ERP.
The experimental protocol was as follows:
Two control ERP measurements were performed 20 minutes apart, then appropriate amount of the test substance was added to produce 10^-4 M concentration in the bathing solution. After 30 minutes incubation with the test substance, two ERP measurements were performed 30 minutes apart.
When the test substance increased ERP at 10^-4 M by 40 msec or more, its effect on ERP was tested also at 10^-5 M.
The effect of the test substances was characterized by the difference between the first treated and the second control measurements. Individual data obtained from four different preparations, at least, were averaged. The reference substance used was sotalol i.e. N-[4-/1-hydroxy-2-(1-methylethylamino)ethyl/plenyl]methane sulfonamide.

Assay [2] deals with isolated rat thoracic aorta. The assay can be described thus: Vascular relaxing effect in potassium chloride (20 mM KCl) contracted isolated rat thoracic aorta. Further details: species or system rat (male SPRD). The following applies: for pIC50: Rattus norvegicus, 20 mM KCl contracted strips, 37° C., read-out: IC50 (vascular relaxation in isolated rat thoracic aorta). The protocol: 1. Measurement of Vascular Relaxing Effect in Potassium Chloride Contracted Isolated rat Thoracic Aorta
Experiments were performed in thoracic aortas obtained from male SPRD rats weighing 250 to 300 g. Thoracic aortas excised from rats killed by decapitation and ensanguination were cleaned of fat and connective tissue, then were immediately placed in carbogenized TYRODE solution. The composition of the normal TYRODE solution was the following (in mM): NaCl 114.7, KCl 3.7, CaCl2 3.6, MgCl2 0.49, NaHCO3 19.9, NaH2 PO4 0.32, glucose 5.1.
Two mm wide and 20 to 25 mm long strips were cut from the aortas along a helical line at 45° angle. Aortic strips were mounted vertically between two cotton threads in 10 ml organ chambers, the lower threads were attached to the organ chambers and the upper threads were connected to isometric force transducers. The strips were incubated under 1 g resting tension at 37° C. for 120 minutes, then resting vascular tone was recorded. Then the strips were contracted with a TYRODE solution containing 20 mM KCl. The composition of the high potassium TYRODE solution was the following (in mM): NaCl 94.7, KCl 20, CaCl2 3.6, MgCl2 0.49, NaHCO3 19.9, NaH2 PO4 0.32, glucose 5.1.
When stable vascular tone developed, increasing doses of the test substance were added to the organ bath. The effects of each test substance were measured at least in 3 tissue preparations obtained from different animals. Decreases in vascular tension caused by the test substances were expressed as percentage changes and IC50 for each tissue preparation was determined by sigmoid (in few casses linear) curve fitting.
For comparison, cromakalim i.e. (±)-trans-3,4-dihydro-3-hydroxy-2,2-dimethyl-4-(2-oxo-1-pyrrolidinyl)-2H-1-benzopyrane-6-carbonitrile was used.

Assay [3] has as its system isolated Langendorff rat hearts. The assay can be described thus: Cardioprotective effect (time to contracture, TTC) in globally ischemic isolated Langendorff rat hearts. Further details: species or system rat (male Wistar). The following applies: for TTC change vs vehicle (%) at 10 µM / TTC change vs vehicle (%) at 1 µM: Rattus norvegicus, compared to the vehicle treated group; for TTC change vs vehicle (%) at 10 µM: 10^-5 M; for TTC change vs vehicle (%) at 1 µM: 10^-6 M. The source says:
3. Measurement of Cardioprotective Effect in Ischemic rat Heart (Langendorff) Preparation
If the blood supply to a part of the myocardium is interrupted (e.g. during myocardial infarction), then the intracellular calcium concentration starts to rise and gradually attains pathophysiological levels. Myocardial contraction is regulated by calcium, therefore, high intracellular calcium concentration results in contracture of the myocardium. In isolated rat hearts, contracture develops in about 10 minutes after starting global ischemia, and this period is called time to contracture (TTC). Any substance which can inhibit the rise of intracellular calcium concentration and the development of contracture caused by high calcium concentration during ischemia protects the myocardium from impairment i.e. it has cardioprotective effect. Under experimental conditions,the cardioprotective effect of drugs is shown by their ability to prolong TTC. The cardioprotective effect of the compounds of the invention was examined by measuring TTC in globally ischemic Langendorff rat hearts/Longman, S. D. and Hamilton, T. C., Medicinal Research Reviews, 12, 73-148 (1992)/.
Male Wistar rats weighing 300 to 350 g were injected with 2500 IU (0.5 ml) of heparin i.p. and 10 minutes later they were anaesthetized with sodium pentobarbital/5-ethyl-5-(1-methylbutyl)-2,4,6(1H,3H,5H)-pyrimidinetrione sodium salt/in a dose of 60 mg/kg i.p. The heart was quickly excised and connected to a Langendorff apparatus via the aorta. The hearts were perfused at a constant perfusion pressure (60 mmHg) and temperature (37° C.) with a modified Krebs-Henseleit solution gassed with 95% of O2 and 5% of CO2. The composition of the modified Krebs-Henseleit solution was the following (in mM): NaCl 118, KCl 4.7, CaCl2 2.5, NaHCO3 24.88, KH2 PO4 1.18, MgSO4 1.6, EDTA 0.5 and glucose 11. Partial O2 and CO2 pressures and also pH were measured and maintained within normal limits (pO2 ==64000-77000 Pa, pCO2 =3800-4500 Pa, pH=7.3-7.45). A hole was cut in the wall of the left atrium and a water-filled plastic balloon attached to a metal cannula was then inserted into the left ventricle via the left atrium for measuring left ventricular pressure. End diastolic pressure was set to about 645 Pa, and adjusted for during the equilibration period but not later.
After a 20 minutes equilibration period, the hearts were perfused for 10 minutes with the test substance at 10^-5 or 10^-6 concentration or with the vehicle (0.04% of dimethyl sulfoxide). Global ischemia was initiated by completely shutting off the perfusate flow and carbogenization for 25 minutes. During ischemia, the time period from the beginning of ischemia until 645 Pa increase in left ventricular end diastolic pressure was measured (TTC).
Three experiments were performed with the test substances at each concentration and parameters of 3 additional vehicle treated hearts were measured along with the test substance.
Individual TTC values were averaged and the effect of the test substances was expressed as a percentage change compared to the vehicle treated group. Compounds that prolong TTC are cardioprotective. As a reference substance, lemakalim i.e. (3S)-trans-3,4-dihydro-3-hydroxy-2,2-dimethyl-4-(2-oxo-1-pyrrolidinyl)-2H- 1-benzpyrane-6-carbonitrile was used.

pIC50: −log10 of the molar value. Where a name gives a salt, the structure may show the parent alone.

For `CN1CCN(c2nc(N)n(-c3nnc(-c4c(Cl)cccc4Cl)s3)n2)CC1` [Example 10, 2-/5-Amino-3-(4-methylpiperazino)-1H-1,2,4-triazole-1-yl/ -5-(2,6-dichlorophenyl)-1,3,4-thiadiazole hydrochloride monohydrate], in assay [1], the “ERP change at 10^-4 M” value is listed as 120 msec and the “ERP change at 10^-5 M” value stood at 32 msec. The pIC50 in assay [2] was less than 5.00. In addition, in assay [3], the TTC change vs vehicle (%) at 10 µM was 74% and the TTC change vs vehicle (%) at 1 µM is 47%.
Take `CSc1nc(N)n(-c2nnc(-c3cccc(OCCCN(C)C)c3)s2)n1` [Example 26, 2-(5-Amino-3-methylthio-1H-1,2,4-triazole-1-yl)-5-/ 3-(3-dimethylaminopropoxy)phenyl/-1,3,4-thiadiazole hydrochloride]: in assay [1], the “ERP prolongation (in words)” value is recorded as “prolonged not only TTC but ERP as well”, the “ERP change at 10^-4 M” value was 148 msec and the “ERP change at 10^-5 M” value came out at 21 msec. Moreover, the pIC50 in assay [2] is less than 5.00. In assay [3], the “TTC prolongation (in words)” value is “prolonged not only TTC but ERP as well”, the TTC change vs vehicle (%) at 10 µM was determined as 41% and the TTC change vs vehicle (%) at 1 µM is 33%.
With `CSc1nc(N)n(-c2nnc(-c3ccccc3OCCCN(C(C)C)C(C)C)s2)n1` [Example 45, 2-(5-Amino-3-methylthio-1H-1,2,4-triazole-1-yl)-5-[2-/ 3-di(2-methylethyl)aminopropoxy/phenyl]-1,3,4-thiadiazole], the negative logarithm of the IC50 (pIC50) in assay [2] was less than 6.00. Moreover, in assay [3], the TTC change vs vehicle (%) at 10 µM was determined as 31% and the TTC change vs vehicle (%) at 1 µM stood at 30%.
Taken in the same sequence, the figures for `CCN(CCO)CCOc1ccccc1-c1nnc(-n2nc(N3CCCCC3)nc2N)s1` [Example 90, 2-(5-Amino-3-piperidino-1H-1,2,4-triazole-1-yl)-5-{2-[2-/ 2-ethyl-2-(2-hydroxyethyl)amino/ethoxy]phenyl}-1,3,4-thiadiazole] were less than 5.00, 36% and 19%.
As to `Nc1nc(N2CCCCC2)nn1-c1nnc(-c2ccccc2OCCNCCN2CCOCC2)s1` [Example 91, 2-(5-Amino-3-piperidino-1H-1,2,4-triazole-1-yl)-5-[2-/ 2-(2-morpholinoethyl)amino/ethoxy]phenyl-1,3,4-thiadiazole], in assay [2], the negative logarithm of the IC50 (pIC50) is less than 6.00. Also, the TTC change vs vehicle (%) at 1 µM in assay [3] is 58%.
For `COc1ccc(CCN(C)CCCOc2ccccc2-c2nnc(-n3nc(SC(C)C)nc3N)s2)cc1OC` [Example 101, 2-/5-Amino-3-(1-methylethylthio)-1H-1,2,4-triazole-1-yl/-5-{2-[3-methyl-3-/2-(3,4-dimethoxyphenylethyl)amino/propoxy]-phenyl}-1,3,4-thiadiazole], in assay [2], the “vascular relaxation of isolated rat thoracic aorta (in words)” value was “relaxed isolated rat thoracic aorta more effectively than the K^+ channel opener and Ca^2+ channel blocker reference substances”; the negative-log IC50 (pIC50) was 7.12.
Consider `COc1ccc(CCN(C)CCCOc2cccc(-c3nnc(-n4nc(SC)nc4N)s3)c2)cc1OC` [Example 105, 2-(5-Amino-3-methylthio-1H-1,2,4-triazole-1-yl)-5-{3-[3-methyl-3-/ 2-(3,4-dimethoxyphenylethyl)amino/propoxy]phenyl}-1,3,4-thiadiazole], for which, in assay [1], the “ERP change at 10^-4 M” value amounted to 62 msec and the “ERP change at 10^-5 M” value amounted to 14 msec. Further, the negative logarithm of the IC50 (pIC50) in assay [2] is less than 6.00.
Taken in the same sequence, the figures for `COc1ccc(CCN(C)CCCOc2ccc(-c3nnc(-n4nc(SC)nc4N)s3)cc2)cc1OC` [Example 108, 2-(5-Amino-3-methylthio-1H-1,2,4-triazole-1-yl)-5-{4-[3-methyl-3-/ 2-(3,4-dimethoxyphenylethyl)amino/propoxy]phenyl}-1,3,4-thiadiazole] were 66 msec, 29 msec and less than 5.00.
Turning to `CC1(C)Oc2ccc(C#N)cc2[C@@H](N2CCCC2=O)[C@@H]1O` [lemakalim, (3S)-trans-3,4-dihydro-3-hydroxy-2,2-dimethyl-4-(2-oxo-1-pyrrolidinyl)-2H-1-benzpyrane-6-carbonitrile, reference compound], the “vascular relaxation of isolated rat thoracic aorta (in words)” value in assay [2] is given as “considerably relaxed isolated rat thoracic aorta”. Also, in assay [3], the “TTC prolongation (in words)” value is on record as “prolonged not only TTC”, the TTC change vs vehicle (%) at 10 µM was found to be 55% and the TTC change vs vehicle (%) at 1 µM worked out at 20%.
